In patent EP0816362A1, “THIAZOLE DERIVATIVES” (TAISHO PHARMACEUTICAL CO. LTD, priority 1995, dated 1996):

Target: T1, human D4.2 receptor (Homo sapiens, UniProt P21917, DEL265-296)
T1 sequence (P21917 with tags, fused parts or gaps DEL265-296): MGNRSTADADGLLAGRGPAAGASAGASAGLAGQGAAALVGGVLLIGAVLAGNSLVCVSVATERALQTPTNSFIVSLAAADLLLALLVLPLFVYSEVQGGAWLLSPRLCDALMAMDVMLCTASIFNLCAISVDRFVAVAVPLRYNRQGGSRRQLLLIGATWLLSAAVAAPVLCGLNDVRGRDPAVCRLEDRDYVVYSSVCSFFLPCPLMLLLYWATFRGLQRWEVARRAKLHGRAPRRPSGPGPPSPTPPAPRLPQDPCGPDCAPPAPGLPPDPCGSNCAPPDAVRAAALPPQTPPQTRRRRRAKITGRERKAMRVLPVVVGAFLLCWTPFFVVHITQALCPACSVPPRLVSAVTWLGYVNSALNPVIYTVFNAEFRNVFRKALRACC
Assay: Dopamine D4 receptor binding experiment ([3H]-spiperone)
Conditions: inhibition of [3H]-spiperone binding, human D4.2 receptor
Method: As a receptor preparation, Chinese hamster ovary (CHO) cell membranes where human D4.2 receptor was expressed were used.
As [^3H]-labeled ligand, [^3H]-spiperone was used.
Human D4.2 receptor binding test: CHO cell membranes where human D4.2 receptor was expressed, [^3H]-spiperone (0.5 nM) and a test drug were reacted at 27°C for 2 hours in 50 mM Tris-HCl buffer, pH 7.4 containing 5 mM EDTA, 1.5 mM calcium chloride, 5 mM potassium chloride and 120 mM sodium chloride.
After the reaction, the sample was filtered under suction through a glass filter (GF/B), and the radioactivity of the filter paper was determined in a liquid scintillation spectrometer.
The binding of [^3H]-spiperone in the presence of 10 µM haloperidol was assumed to be non-specific binding, and the difference between the total binding and the non-specific binding was assumed to be specific binding.

Point of comparison: `CNc1nc(-c2ccc(F)cc2)c(CCN2CCC(=Cc3ccc(F)cc3)CC2)s1` [Compound L-35], IC50 2.15 nM. Against it:
- COc1ccc(-c2nc(C)sc2CCN2CCC(=Cc3ccc(F)cc3)CC2)cc1Br [Compound L-22] — 6.5-fold higher, 13.9 nM
- Cc1nc(-c2ccccc2)c(CCN2CCC(=Cc3ccc(F)cc3)CC2)s1 [Compound L-23] — within 1.5-fold, 3.13 nM
- Cc1nc(-c2ccc(F)cc2)c(CCN2CCC(=Cc3ccc(Cl)cc3)CC2)s1 [Compound L-24] — 5.3-fold higher, 11.5 nM
- Cc1nc(-c2ccc(F)cc2)c(CCN2CCC(=Cc3ccc(Br)cc3)CC2)s1 [Compound L-25] — 14-fold higher, 29.2 nM
- COc1ccc(C=C2CCN(CCc3sc(C)nc3-c3ccc(F)cc3)CC2)cc1 [Compound L-26] — 7.8-fold higher, 16.7 nM
- Cc1nc(-c2ccc(F)cc2)c(CCN2CCC(=Cc3cccc(F)c3)CC2)s1 [Compound L-27] — within 1.5-fold, 1.96 nM
- Cc1nc(-c2ccc(F)cc2)c(CCN2CCC(=Cc3ccccc3F)CC2)s1 [Compound L-28] — 2.8-fold higher, 5.99 nM
- Cc1nc(-c2ccc(F)cc2)c(CCN2CCC(=Cc3cccc(C(F)(F)F)c3)CC2)s1 [Compound L-29] — 4.9-fold higher, 10.5 nM
- Cc1nc(-c2ccc(F)cc2)c(CCN2CCC(=Cc3ccccc3)CC2)s1 [Compound L-30] — within 1.5-fold, 2.6 nM
- CC(=C1CCN(CCc2sc(C)nc2-c2ccc(F)cc2)CC1)c1ccc(F)cc1 [Compound L-31] — 7.8-fold higher, 16.7 nM
- Fc1ccc(C=C2CCN(CCc3scnc3-c3ccc(F)cc3)CC2)cc1 [Compound L-32] — 3.1-fold higher, 6.58 nM
- Fc1ccc(-c2ncsc2CCN2CCC(=Cc3ccccc3)CC2)cc1 [Compound L-33] — 1.6-fold higher, 3.43 nM

Test system: not given
Assay: not given
Conditions: Summary and Clinical Data, Sandoz, Canada Inc. (1990); a case of death also reported; cited from earlier work

In the case of `CN1CCN(C2=Nc3cc(Cl)ccc3Nc3ccccc32)CC1` [clozapine], the blood disorder is given as “agranulocytosis”.

Same assay, conditions: clinical experiments, compared with dopamine D2 receptor antagonist; cited from earlier work

In the case of `CN1CCN(C2=Nc3cc(Cl)ccc3Nc3ccccc32)CC1` [clozapine], the extrapyramidal disorder is given as “less extrapyramidal disorder”.
